{
  "source": "patent US9050341B2",
  "about": "“Methods of treating drug resistant and other tumors by administering 6,7-dialkoxy quinazoline derivatives” (NATCO PHARMA LIMITED, priority 2009, dated 2015)",
  "assay_in_all_cases": "KinomeScan kinase profiling",
  "format_in_all_cases": "binding",
  "key": {"[1]": {"molecular_target": "T1, FRK (Homo sapiens, UniProt P42685)", "T1 construct": "host or cells: E. coli host derived from BL21, infected with T7 phage", "how_it_was_run": "(§1)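 Kinases were expressed as T7 phage fusions in a BL21-derived E. coli host and the cleared lysates were used. Ligand beads were blocked with biotin and buffer (1% BSA, 0.05% Tween 20, 1 mM DTT). Compounds came from 40× DMSO stocks, and phage in the eluates was titred by qPCR.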"}, "[2]": {"molecular_target": "T2, LCK (Homo sapiens, UniProt P06239)", "T2 construct": "host or cells: T7 phage in E. coli host derived from BL21", "how_it_was_run": "as §1"}, "[3]": {"molecular_target": "T3, EPHA7 (Homo sapiens, UniProt Q15375)", "T3 construct": "host or cells: E. coli host derived from BL21, T7 phage lysate", "T3 sequence (Q15375 28-998)": "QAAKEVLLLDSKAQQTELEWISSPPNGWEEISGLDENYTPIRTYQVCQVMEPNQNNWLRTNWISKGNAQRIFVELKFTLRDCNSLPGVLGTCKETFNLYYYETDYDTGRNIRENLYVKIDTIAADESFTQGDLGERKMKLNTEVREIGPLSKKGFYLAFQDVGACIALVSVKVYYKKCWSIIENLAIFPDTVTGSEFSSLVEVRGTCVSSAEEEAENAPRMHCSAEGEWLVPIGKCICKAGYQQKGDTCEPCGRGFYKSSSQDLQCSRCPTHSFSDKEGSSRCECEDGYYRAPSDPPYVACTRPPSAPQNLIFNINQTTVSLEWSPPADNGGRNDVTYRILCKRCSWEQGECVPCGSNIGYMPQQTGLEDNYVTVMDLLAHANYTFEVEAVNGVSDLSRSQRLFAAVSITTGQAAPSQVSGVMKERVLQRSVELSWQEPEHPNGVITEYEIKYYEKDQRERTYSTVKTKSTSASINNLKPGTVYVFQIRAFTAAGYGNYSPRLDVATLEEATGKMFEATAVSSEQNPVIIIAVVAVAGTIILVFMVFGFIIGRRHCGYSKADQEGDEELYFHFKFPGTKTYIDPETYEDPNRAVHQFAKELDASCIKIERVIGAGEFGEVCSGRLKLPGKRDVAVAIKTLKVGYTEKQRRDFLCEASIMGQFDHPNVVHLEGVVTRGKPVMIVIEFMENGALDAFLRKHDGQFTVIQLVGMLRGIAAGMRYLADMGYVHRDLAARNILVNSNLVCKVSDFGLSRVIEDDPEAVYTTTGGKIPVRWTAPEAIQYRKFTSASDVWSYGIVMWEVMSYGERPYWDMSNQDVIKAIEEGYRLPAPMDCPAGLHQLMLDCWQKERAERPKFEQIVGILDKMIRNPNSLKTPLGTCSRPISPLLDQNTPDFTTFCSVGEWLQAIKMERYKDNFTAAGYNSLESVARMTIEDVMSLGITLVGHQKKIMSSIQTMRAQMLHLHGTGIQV", "how_it_was_run": "as §1"}, "[4]": {"molecular_target": "T4, PRKD2 (Homo sapiens, UniProt Q9BZL6)", "T4 construct": "purchased Ambit Biosciences Corp (KinomeScan); host or cells: E. coli host derived from BL21, infected with T7 phage", "how_it_was_run": "as §1"}, "[5]": {"molecular_target": "T5, FLT3 (N8411) (Homo sapiens, UniProt P36888, N841I)", "T5 construct": "host or cells: E. coli host derived from BL21, infected with T7 phage", "how_it_was_run": "as §1"}, "[6]": {"molecular_target": "T6, PCTK1 (Homo sapiens, UniProt Q00536)", "T6 construct": "host or cells: E. coli host derived from the BL21 strain, infected with T7 phage", "how_it_was_run": "as §1"}, "[7]": {"molecular_target": "T7, INSR (Homo sapiens, UniProt P06213)", "T7 construct": "host or cells: T7 phage in E. coli host derived from BL21", "T7 sequence (P06213 28-1382)": "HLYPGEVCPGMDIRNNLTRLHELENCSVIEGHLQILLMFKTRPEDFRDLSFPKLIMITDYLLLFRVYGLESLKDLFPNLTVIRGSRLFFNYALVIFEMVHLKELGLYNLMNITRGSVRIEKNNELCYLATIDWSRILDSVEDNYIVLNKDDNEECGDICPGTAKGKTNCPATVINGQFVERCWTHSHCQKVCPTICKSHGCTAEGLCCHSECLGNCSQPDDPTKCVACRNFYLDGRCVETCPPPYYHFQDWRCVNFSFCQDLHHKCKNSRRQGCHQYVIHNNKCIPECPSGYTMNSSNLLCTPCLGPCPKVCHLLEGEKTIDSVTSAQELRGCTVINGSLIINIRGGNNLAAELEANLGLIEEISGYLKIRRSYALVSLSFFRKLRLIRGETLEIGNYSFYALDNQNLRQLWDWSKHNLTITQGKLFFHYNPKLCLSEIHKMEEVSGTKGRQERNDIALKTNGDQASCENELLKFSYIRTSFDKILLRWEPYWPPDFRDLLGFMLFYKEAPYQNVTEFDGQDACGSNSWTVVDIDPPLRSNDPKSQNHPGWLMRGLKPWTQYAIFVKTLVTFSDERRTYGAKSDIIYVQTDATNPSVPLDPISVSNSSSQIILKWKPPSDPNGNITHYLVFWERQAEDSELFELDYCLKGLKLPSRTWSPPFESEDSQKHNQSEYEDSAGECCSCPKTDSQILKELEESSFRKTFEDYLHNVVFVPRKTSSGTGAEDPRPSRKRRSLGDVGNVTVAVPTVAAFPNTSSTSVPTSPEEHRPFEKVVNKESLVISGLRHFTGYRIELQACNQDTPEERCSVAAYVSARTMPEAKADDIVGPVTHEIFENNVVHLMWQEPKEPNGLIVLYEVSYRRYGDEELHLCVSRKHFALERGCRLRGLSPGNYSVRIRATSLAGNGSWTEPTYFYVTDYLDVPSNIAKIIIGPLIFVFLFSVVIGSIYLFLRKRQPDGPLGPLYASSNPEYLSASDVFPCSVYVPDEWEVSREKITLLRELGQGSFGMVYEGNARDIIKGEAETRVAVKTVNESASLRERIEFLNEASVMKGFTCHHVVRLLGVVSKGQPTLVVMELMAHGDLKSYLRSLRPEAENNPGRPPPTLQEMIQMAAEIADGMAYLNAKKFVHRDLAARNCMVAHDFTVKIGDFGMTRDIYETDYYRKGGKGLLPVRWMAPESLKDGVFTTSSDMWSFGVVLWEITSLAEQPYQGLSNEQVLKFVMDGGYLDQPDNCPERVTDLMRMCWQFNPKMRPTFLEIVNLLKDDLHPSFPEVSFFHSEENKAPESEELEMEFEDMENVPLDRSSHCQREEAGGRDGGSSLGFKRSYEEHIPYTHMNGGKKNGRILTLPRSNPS", "how_it_was_run": "as §1"}, "[8]": {"molecular_target": "T8, EGFR (L747-E749del, A750P) (Homo sapiens, UniProt P00533, A750P/DEL747-749)", "T8 construct": "purchased Ambit Biosciences Corp (KinomeScan); host or cells: T7 phage in E. coli host derived from BL21", "how_it_was_run": "as §1"}, "[9]": {"molecular_target": "T9, NEK5 (Homo sapiens, UniProt Q6P3R8)", "T9 construct": "host or cells: T7 phage in E. coli host derived from BL21", "how_it_was_run": "as §1"}, "[10]": {"molecular_target": "T10, KIT (V559D, V654A) (Homo sapiens, UniProt P10721, V559D/V654A)", "T10 construct": "host or cells: T7 phage in E. coli host derived from BL21", "how_it_was_run": "as §1"}, "[11]": {"molecular_target": "T11, IRAK3 (Homo sapiens, UniProt Q9Y616)", "T11 construct": "host or cells: T7 phage in E. coli host derived from BL21", "how_it_was_run": "as §1"}, "[12]": {"molecular_target": "T12, AURKB (Homo sapiens, UniProt Q96GD4)", "T12 construct": "purchased Ambit Biosciences Corp (KinomeScan); host or cells: E. coli host derived from the BL21 strain, T7 phage", "how_it_was_run": "as §1"}, "[13]": {"molecular_target": "T13, NEK2 (Homo sapiens, UniProt P51955)", "T13 construct": "host or cells: T7 phage in E. coli host derived from BL21", "how_it_was_run": "as §1"}, "[14]": {"molecular_target": "T14, PRKX (Homo sapiens, UniProt P51817)", "T14 construct": "host or cells: E. coli host derived from BL21, T7 phage lysate", "how_it_was_run": "as §1"}, "[15]": {"molecular_target": "T15, ITK (Homo sapiens, UniProt Q08881)", "T15 construct": "host or cells: T7 phage in E. coli host derived from BL21", "how_it_was_run": "as §1"}, "[16]": {"molecular_target": "T16, MAP4K3 (Homo sapiens, UniProt Q8IVH8)", "T16 construct": "host or cells: E. coli derived from BL21, infected with T7 phage", "how_it_was_run": "as §1"}, "[17]": {"molecular_target": "T17, MYLK (Homo sapiens, UniProt Q15746)", "T17 construct": "host or cells: T7 phage in E. coli host derived from BL21", "how_it_was_run": "as §1"}, "[18]": {"molecular_target": "T18, ABL2 (Homo sapiens, UniProt P42684)", "T18 construct": "host or cells: E. coli host derived from BL21 (T7 phage lysate)", "how_it_was_run": "as §1"}, "[19]": {"molecular_target": "T19, ABL1 (E255K) (Homo sapiens, UniProt P00519, E255K)", "T19 construct": "host or cells: E. coli host derived from BL21 (T7 phage lysate)", "T19 sequence (P00519 whole entry E255K)": "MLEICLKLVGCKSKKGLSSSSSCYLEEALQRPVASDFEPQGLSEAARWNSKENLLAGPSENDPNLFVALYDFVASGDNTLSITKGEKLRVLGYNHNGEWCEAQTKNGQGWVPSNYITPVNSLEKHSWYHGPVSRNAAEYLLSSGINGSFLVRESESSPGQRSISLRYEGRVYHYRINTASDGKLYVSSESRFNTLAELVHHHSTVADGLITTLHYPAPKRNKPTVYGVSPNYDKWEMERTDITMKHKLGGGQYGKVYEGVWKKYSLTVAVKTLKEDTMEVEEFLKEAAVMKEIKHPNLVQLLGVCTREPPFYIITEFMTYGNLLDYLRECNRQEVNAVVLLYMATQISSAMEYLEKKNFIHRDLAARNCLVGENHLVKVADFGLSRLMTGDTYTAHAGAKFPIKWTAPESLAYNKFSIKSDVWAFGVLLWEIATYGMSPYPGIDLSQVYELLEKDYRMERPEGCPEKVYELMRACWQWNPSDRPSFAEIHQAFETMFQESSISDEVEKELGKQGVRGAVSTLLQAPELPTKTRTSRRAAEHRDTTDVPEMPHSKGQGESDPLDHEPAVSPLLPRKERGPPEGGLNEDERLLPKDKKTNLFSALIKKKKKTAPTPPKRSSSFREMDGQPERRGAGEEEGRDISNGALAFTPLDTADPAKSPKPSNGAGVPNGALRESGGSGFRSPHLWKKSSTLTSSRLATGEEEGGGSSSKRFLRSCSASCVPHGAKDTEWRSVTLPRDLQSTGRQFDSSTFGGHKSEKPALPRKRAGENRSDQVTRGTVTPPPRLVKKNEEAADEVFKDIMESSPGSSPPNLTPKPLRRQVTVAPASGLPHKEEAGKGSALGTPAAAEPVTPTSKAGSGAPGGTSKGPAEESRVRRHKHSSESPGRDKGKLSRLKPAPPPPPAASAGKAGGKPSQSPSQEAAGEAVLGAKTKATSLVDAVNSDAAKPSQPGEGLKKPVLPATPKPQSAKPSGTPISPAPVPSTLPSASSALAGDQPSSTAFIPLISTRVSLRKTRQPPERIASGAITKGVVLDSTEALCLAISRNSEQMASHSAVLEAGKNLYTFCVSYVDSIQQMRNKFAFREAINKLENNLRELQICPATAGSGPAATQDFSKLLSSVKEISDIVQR", "how_it_was_run": "as §1"}, "[20]": {"molecular_target": "T20, SRC (Homo sapiens, UniProt P12931)", "T20 construct": "host or cells: E. coli host derived from the BL21 strain, T7 phage lysate", "how_it_was_run": "as §1"}, "[21]": {"molecular_target": "T21, PHKG1 (Homo sapiens, UniProt Q16816)", "T21 construct": "host or cells: E. coli host derived from the BL21 strain, infected with T7 phage", "T21 sequence (Q16816 whole entry)": "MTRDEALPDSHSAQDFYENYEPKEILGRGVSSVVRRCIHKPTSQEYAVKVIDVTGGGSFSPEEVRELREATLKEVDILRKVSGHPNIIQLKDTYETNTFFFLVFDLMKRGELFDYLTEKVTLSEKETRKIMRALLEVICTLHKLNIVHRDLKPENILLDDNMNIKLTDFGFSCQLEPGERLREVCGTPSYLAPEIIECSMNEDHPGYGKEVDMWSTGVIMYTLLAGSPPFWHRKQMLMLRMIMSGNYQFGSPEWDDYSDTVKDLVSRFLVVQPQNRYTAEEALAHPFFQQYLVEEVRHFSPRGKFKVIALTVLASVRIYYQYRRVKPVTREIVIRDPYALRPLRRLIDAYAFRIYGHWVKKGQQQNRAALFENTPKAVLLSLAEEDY", "how_it_was_run": "as §1"}, "[22]": {"molecular_target": "T22, LIMK1 (Homo sapiens, UniProt P53667)", "T22 construct": "host or cells: T7 phage in E. coli host derived from BL21", "T22 sequence (P53667 whole entry)": "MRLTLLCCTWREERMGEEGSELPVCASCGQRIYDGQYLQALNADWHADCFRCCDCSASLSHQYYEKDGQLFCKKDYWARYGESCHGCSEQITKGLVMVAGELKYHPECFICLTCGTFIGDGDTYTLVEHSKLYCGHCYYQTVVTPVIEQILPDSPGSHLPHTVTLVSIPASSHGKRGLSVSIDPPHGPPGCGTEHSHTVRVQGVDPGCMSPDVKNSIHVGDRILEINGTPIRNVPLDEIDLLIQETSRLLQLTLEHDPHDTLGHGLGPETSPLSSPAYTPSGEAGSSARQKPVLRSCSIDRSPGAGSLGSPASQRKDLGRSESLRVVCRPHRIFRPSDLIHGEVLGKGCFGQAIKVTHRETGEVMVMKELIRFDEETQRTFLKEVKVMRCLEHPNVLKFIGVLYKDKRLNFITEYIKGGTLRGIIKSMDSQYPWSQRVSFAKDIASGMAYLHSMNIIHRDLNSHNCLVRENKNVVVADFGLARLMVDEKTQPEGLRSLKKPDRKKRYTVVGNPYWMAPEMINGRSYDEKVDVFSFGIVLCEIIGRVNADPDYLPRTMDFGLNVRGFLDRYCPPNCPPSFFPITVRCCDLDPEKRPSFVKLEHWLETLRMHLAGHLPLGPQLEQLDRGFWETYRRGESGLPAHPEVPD", "how_it_was_run": "as §1"}, "[23]": {"molecular_target": "T23, CAMK1D (Homo sapiens, UniProt Q8IU85)", "T23 construct": "purchased Ambit Biosciences Corp (KinomeScan); host or cells: E. coli host derived from the BL21 strain, T7 phage", "T23 sequence (Q8IU85 whole entry)": "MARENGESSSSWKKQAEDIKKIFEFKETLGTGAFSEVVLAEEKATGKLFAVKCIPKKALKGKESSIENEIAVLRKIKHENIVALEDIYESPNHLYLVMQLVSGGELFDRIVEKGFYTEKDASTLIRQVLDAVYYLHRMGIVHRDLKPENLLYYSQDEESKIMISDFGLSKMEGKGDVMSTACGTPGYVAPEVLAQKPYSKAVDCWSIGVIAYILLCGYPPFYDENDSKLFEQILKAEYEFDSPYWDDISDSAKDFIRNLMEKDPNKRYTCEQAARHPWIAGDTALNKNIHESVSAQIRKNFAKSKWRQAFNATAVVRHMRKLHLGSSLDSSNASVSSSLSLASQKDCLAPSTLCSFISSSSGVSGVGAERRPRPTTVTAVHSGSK", "how_it_was_run": "as §1"}},
  "data": [
    {"smiles": "C#Cc1cccc(Nc2ncnc3cc(OC)c(OCCCN4CCOCC4)cc23)c1", "note": "[NRC-2694, N-(3-ethylnylphenyl)-7-methoxy-6-[3-(4-morpholinyl)propoxy]-4-quinazolinamine]", "values": [
      {"measurement": "% Ctrl @ 10000 nM", "setting": "[1]", "value": 10, "unit": "% Ctrl"},
      {"measurement": "% Ctrl @ 10000 nM", "setting": "[2]", "value": 1.5, "unit": "% Ctrl"},
      {"measurement": "% Ctrl @ 10000 nM", "setting": "[3]", "value": 70, "unit": "% Ctrl"},
      {"measurement": "% Ctrl @ 10000 nM", "setting": "[4]", "value": 0.4, "unit": "% Ctrl"},
      {"measurement": "% Ctrl @ 10000 nM", "setting": "[5]", "value": 16, "unit": "% Ctrl"},
      {"measurement": "% Ctrl @ 10000 nM", "setting": "[6]", "value": 100, "unit": "% Ctrl"},
      {"measurement": "% Ctrl @ 10000 nM", "setting": "[7]", "value": 90, "unit": "% Ctrl"},
      {"measurement": "% Ctrl @ 10000 nM", "setting": "[8]", "value": 0, "unit": "% Ctrl"},
      {"measurement": "% Ctrl @ 10000 nM", "setting": "[9]", "value": 94, "unit": "% Ctrl"},
      {"measurement": "% Ctrl @ 10000 nM", "setting": "[10]", "value": 47, "unit": "% Ctrl"},
      {"measurement": "% Ctrl @ 10000 nM", "setting": "[11]", "value": 25, "unit": "% Ctrl"},
      {"measurement": "% Ctrl @ 10000 nM", "setting": "[12]", "value": 56, "unit": "% Ctrl"},
      {"measurement": "% Ctrl @ 10000 nM", "setting": "[13]", "value": 63, "unit": "% Ctrl"},
      {"measurement": "% Ctrl @ 10000 nM", "setting": "[14]", "value": 100, "unit": "% Ctrl"},
      {"measurement": "% Ctrl @ 10000 nM", "setting": "[15]", "value": 82, "unit": "% Ctrl"},
      {"measurement": "% Ctrl @ 10000 nM", "setting": "[16]", "value": 52, "unit": "% Ctrl"},
      {"measurement": "% Ctrl @ 10000 nM", "setting": "[17]", "value": 62, "unit": "% Ctrl"},
      {"measurement": "% Ctrl @ 10000 nM", "setting": "[18]", "value": 43, "unit": "% Ctrl"},
      {"measurement": "% Ctrl @ 10000 nM", "setting": "[19]", "value": 80, "unit": "% Ctrl"},
      {"measurement": "% Ctrl @ 10000 nM", "setting": "[20]", "value": 24, "unit": "% Ctrl"},
      {"measurement": "% Ctrl @ 10000 nM", "setting": "[21]", "value": 50, "unit": "% Ctrl"},
      {"measurement": "% Ctrl @ 10000 nM", "setting": "[22]", "value": 62, "unit": "% Ctrl"},
      {"measurement": "% Ctrl @ 10000 nM", "setting": "[23]", "value": 83, "unit": "% Ctrl"}
    ]}
  ]
}
